Measured values: patent publication US20260242490A1, “METHODS OF TREATING NAFLD AND NASH” (CytoDyn Inc., priority 2022, published 2026)
Several values for one entry are separate records, joined by “and”; a condition that tells them apart may be missing. Identical values can stand only once. Marks after values point to notes of the source that are not given here.

Assays:
[1] = system: NSG mice fed a high fat NASH-inducing diet; test: Humanized NSG mice on high fat NASH-inducing diet, Oil Red O liver sections; type: in vivo, mouse
Description: 16 male were first humanized by intravenous inoculation with normal human umbilical cord blood cells. […] Mice were switched to a high fat (52%), high cholesterol (1.25%) diet. (FPC diet: fructose, palmitate, cholesterol, trans-fat; Envigo-Teklad TD.160785). […] Mice were euthanized at 16 weeks after initiation of the high fat, high cholesterol diet.
Liver sections were analyzed for indicators of NAFLD. […] Regions of interest were identified in micrographs and digitized using an Aperio AT2 slide scanner (Leica Biosystems), then analyzed using QuPath v0.2.01 imaging software. […] Percent positivity in IgG treated group was 9.751±1.789. […] Student's t test p=0.014. Steatosis was numerically scored following a semi-quantitative pathological standard.

[2] = system: hepatic fat fraction; test: CDI-NASH-01 clinical study, MRI-PDFF; type: in vivo, human; details: for MRI PDFF: change baseline to week 14; for Mean percent change from baseline PDFF: 700 mg SC weekly (n=22), baseline to week 14
Description: (§1) Eligible patients included adults aged between 18 to 75 years (inclusive), with evidence of phenotype nonalcoholic steatohepatitis (NASH). […] A stable body weight (±5%) was required during the 6 months prior to screening. Exclusion criteria include but were not limited to HIV, autoimmune hepatitis, excess alcohol use, viral hepatitis, and prior or pending liver transplantation. No patients in the 350 mg study were concomitantly treated with semaglutide, while 18% of patients in the placebo group were concomitantly treated with semaglutide.
(§2) There were 21 patients in cT1 analysis and 22 for PDFF analysis. One patient obtained PDFF at End of Treatment but MRI for cT1 despite repeat was not able to quality (by 3 cuts) so no results for cT1 were obtained on that patient.
The primary efficacy objective of the study was the change from baseline in hepatic fat fraction, assessed by magnetic resonance imaging-derived proton density fat fraction (MRI-PDFF) at week 14.

[3] = system: fibro-inflammatory activity in the liver; test: CDI-NASH-01 clinical study, MRI cT1; type: in vivo, human; details: for Mean change cT1: baseline to week 14; for MRI cT1: change baseline to week 14
Description: as §1, §2
(§3) The secondary efficacy objective was the change from baseline in fibro-inflammatory activity in the liver as assessed by cT1 (corrected T1) at week 14. cT1 is obtained by multiparametric magnetic resonance imaging of the liver and is a quantitative metric for assessing a composite of liver inflammation and fibrosis, expressed in milliseconds (msec). Additional objectives were change from baseline in LFT, chemokine and cytokine levels and key biomarkers of inflammation to week 14. In particular, change in serum cK18 and K18 by M30-M65 ELISA was assessed at week 14.

[4] = system: LFT, chemokine and cytokine levels and key biomarkers of inflammation; test: CDI-NASH-01 clinical study, serum analysis of biomarkers; type: in vivo, human
Excerpt: as §3

[5] = system: serum cK18 and K18; test: CDI-NASH-01 clinical study, M30-M65 ELISA; type: in vivo, human
Excerpt: as §3

[6] = CDI-NASH-01 clinical study, safety and tolerability; type: in vivo, human
Excerpt: The secondary objective of this study was to assess the safety and tolerability of leronlimab in adult patients diagnosed with NASH compared to placebo.
(See FIG. 3 and FIG. 4.) There was no grade 3 or higher drug related treatment emergent adverse event.

[7] = system: NASH patients by CCR5 haplotype; test: CDI-NASH-01 clinical study, treatment outcome by CCR5 haplotype; type: in vivo, human
Excerpt: CCR5 haplotype was investigated for 5 patients. Haplotypes with very high transcription and thus high cell surface expression of CCR5 include HHE/HHE and HHG1/HHG1. High transcription alleles when combined with a null allele delta 32 or HHG2 will default to the heterozygous allele such that HHE/HHG2 and HHG1/HHG2 would also be high transcribers for CCR5.
CCR5 transcriptional activity and disease progression can be slowed or accelerated. Surface CCR5 expression level also played a part in NASH disease progression and specific CCR5 haplotypes correlated with dose and treatment outcomes.
All patients appeared to benefit from a dose that lowered RANTES (CCL5) levels to approximately zero.

[8] = target: CCR5 (Homo sapiens, UniProt P51681); details: CCR5+ cells; cited from earlier work
[9] = system: CCR5-expressing cells; details: cited from earlier work
[10] = system: fibro-inflammatory activity in the liver; test: CDI-NASH-01 clinical study, MRI cT1; type: in vivo, human; details: 350 mg SC weekly, all patients (n = 22), change baseline to week 14
[11] = system: HIV-1; details: in vitro and hu-PBL-SCID mouse model; at concentrations that do not affect CCR5 chemokine receptor activity; cited from earlier work
[12] = 350 mg SC weekly, baseline cT1 ≥ 875 (n = 14)
[13] = 350 mg SC weekly, baseline cT1 ≥ 950 (n = 8)
[14] = 350 mg, patients with baseline elevated ALT (n=8)
[15] = 700 mg group with genetic haplotypes known to over produce CCR5, post hoc analysis
[16] = 700 mg, haplotypes associated with increased CCR5 expression
[17] = 350 mg SC weekly, all patients (n = 22), change baseline to week 14
[18] = 350 mg SC weekly, baseline cT1 ≥ 875 (n = 14), change baseline to week 14
[19] = 350 mg SC weekly, baseline cT1 ≥ 950 (n = 8), change baseline to week 14
[20] = 700 mg, patients with increased CCR5 cell surface levels
[21] = placebo patients concomitantly treated with semaglutide (n = 5)
[22] = placebo patients concomitantly treated with semaglutide (n = 5), change baseline to week 14

Sequence of CCR5 (P51681 whole entry): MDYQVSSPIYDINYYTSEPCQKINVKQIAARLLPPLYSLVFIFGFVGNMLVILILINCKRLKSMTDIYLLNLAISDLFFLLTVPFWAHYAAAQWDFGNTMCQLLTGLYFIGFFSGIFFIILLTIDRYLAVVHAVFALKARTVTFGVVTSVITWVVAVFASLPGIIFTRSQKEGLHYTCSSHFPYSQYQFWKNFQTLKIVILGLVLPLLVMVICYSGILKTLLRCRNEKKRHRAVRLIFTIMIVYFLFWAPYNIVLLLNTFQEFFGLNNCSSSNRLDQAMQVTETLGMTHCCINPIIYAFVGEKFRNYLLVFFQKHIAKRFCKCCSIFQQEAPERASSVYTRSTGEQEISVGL

leronlimab: humanized IgG4 monoclonal antibody that binds to CCR5; humanized version of murine antibody PA14
fatty liver development ([1]; 2 mg i.p. twice weekly): inhibited | presence of fat in the liver, Oil Red O stain ([1]; 2 mg i.p. twice weekly vs IgG): markedly reduced | MRI PDFF ([2]; 350 mg SC weekly, all patients (n = 22)): significantly reduced | MRI PDFF [2, 12]: −4.37% and −4.38* % | MRI PDFF [2, 13]: −9.39% and −9.27* % | PDFF change [2, 14]: −18% | Mean percent change from baseline PDFF [2]: +3.75% | Mean percent change from baseline PDFF ([2]; listed as Leronlimab): did not reduce | mean percent PDFF change [2, 15]: −27.9% | PDFF decrease [2, 16]: 28% | steatosis [2, 16]: Improvements | Mean change cT1 ([3]; 350 mg SC weekly, all patients): -24.38 ms | MRI cT1 [3, 12]: −42.00** | MRI cT1 [3, 13]: −68.86** | Mean change cT1 ([3]; 350 mg subgroup with baseline cT1≥875 ms): -42.00 ms | cT1 change [3, 14]: -69 ms | Mean change cT1 ([3]; 700 mg SC weekly): -2.73 ms | Mean change cT1 ([3]; 700 mg SC weekly, listed as Leronlimab): did not reduce | mean cT1 change [3, 15]: -45.4 ms | Alpha-2-Mactoglobulin s [4, 17]: 8.96 mg/mL | Gamma Glutamyl Transferase (GGT) s [4, 17]: −1.3 U/L | Alkaline Phosphatase [4, 18]: −3.16 IU/L | Apolipoprotein A1S [4, 18]: 9.2 mg/dL | Aspartate Aminotransferase (AST) s [4, 18]: −5.5 U/L | CCL2 (Monocyte Chemotactic Protein-1) [4, 18]: -95.53 pg/mL | CCL3 (Macrophage Inflammatory Protein-1 Alpha) [4, 18]: −7.14*** pg/mL | CCL5 (RANTES) [4, 18]: −7.8 | CCL11 (Eosinophil Chemotactic Protein) [4, 18]: -15.21 pg/mL | CCL18 (Macrophage Inflammatory Protein-4) [4, 18]: −32.1** ng/mL | EN RAGE (Receptor Advanced Glycation End-Products) [4, 18]: −115.50** ng/mL | IL-1 (Interleukin 1) Beta [4, 18]: 0.00 pg/mL | IL-6 (Interleukin 6) [4, 18]: -0.44 pg/mL | IL-8 (Interleukin 8) [4, 18]: −12.6*** pg/mL | IR-IRA (Interleukin 1 Receptor Antagonist) [4, 18]: −34.79** pg/mL | TIMP-1 (Tissue Inhibitor Metalloproteinases 1) [4, 18]: -17.26 ng/mL | TNF Receptor 2 (STNFR-2) [4, 18]: −2.0*** ng/mL | VCAM (Vascular Cell Adnhesion Molecule) [4, 18]: −94.2*** ng/mL | Alkaline Phosphatase [4, 19]: −7.25* IU/L | Apolipoprotein A1S [4, 19]: 2.3 mg/dL | Aspartate Aminotransferase (AST) s [4, 19]: −13.0 U/L | CCL2 (Monocyte Chemotactic Protein-1) [4, 19]: -179.0 pg/mL | CCL3 (Macrophage Inflammatory Protein-1 Alpha) [4, 19]: −8.0*** pg/mL | CCL5 (RANTES) [4, 19]: −25.3 | CCL11 (Eosinophil Chemotactic Protein) [4, 19]: -16.25 pg/mL | CCL18 (Macrophage Inflammatory Protein-4) [4, 19]: −48.0** ng/mL | EN RAGE (Receptor Advanced Glycation End-Products) [4, 19]: −169.0* ng/mL | Gamma Glutamyl Transferase (GGT) s [4, 19]: −6.13 U/L | IL-1 (Interleukin 1) Beta [4, 19]: 0.00 pg/mL | IL-6 (Interleukin 6) [4, 19]: -0.30 pg/mL | IL-8 (Interleukin 8) [4, 19]: −4.25** pg/mL | IR-IRA (Interleukin 1 Receptor Antagonist) [4, 19]: -26.25 pg/mL | TIMP-1 (Tissue Inhibitor Metalloproteinases 1) [4, 19]: -25.3 ng/mL | TNF Receptor 2 (STNFR-2) [4, 19]: −2.7*** ng/mL | VCAM (Vascular Cell Adnhesion Molecule) [4, 19]: −81.0* ng/mL | ALT, mean change [4, 14]: −29.3 U/L | ALT, mean after treatment ([4]; 350 mg, patients with baseline elevated ALT (n=8), baseline 83.7): 54.3 U/L | CCL2 level ([4]; 700 mg SC weekly): balanced or increased levels | CCL3 level ([4]; 700 mg SC weekly): balanced or increased levels | CCL11 level ([4]; 700 mg SC weekly): balanced or increased levels | CCL18 level ([4]; 700 mg SC weekly): balanced or increased levels | Apolipoprotein A1 [4, 16]: Improvements | HDL [4, 16]: strong increase | M65 ELISA (cK18 and K18), mean change baseline to week 14 ([5]; 350 mg group): −8.18 U/L | M65 ELISA (cK18 and K18), mean at week 14 ([5]; 350 mg group, baseline 340.55): 332.4 U/L | CK18 [5, 16]: statistically significant reductions | M30 [5, 20]: statistically significant reductions | M65 [5, 20]: statistically significant reductions | tolerability ([6]; Part 1 (700 mg) and Part 2 (350 mg)): generally well tolerated | grade 3 or higher drug related treatment emergent adverse event ([6]; Part 1 and Part 2): no | Injection site reaction and mild diarrhea, frequency vs placebo ([6]; not associated with discontinuation): occurred more frequently | treatment effect ([7]; 350 mg, haplotypes correlated with low to normal surface expression of CCR5): benefited | treatment effect ([7]; 700 mg or 350 mg, haplotypes correlated with high surface expression of CCR5, greater at 700 mg): positive effects | treatment effect ([7]; 700 mg, haplotypes correlated with low to normal surface expression of CCR5): negative effects | IC50 of CCL5-induced calcium mobilization [8]: 45 µg/mL | CCR5 surface expression / depletion of CCR5-expressing cells [9]: does not downregulate CCR5 surface expression or deplete CCR5-expressing cells | MRI cT1 [10]: significantly reduced | HIV-1 entry and replication [11]: potently inhibits

semaglutide [Placebo + Semaglutide, reference compound]
MRI PDFF [2, 21]: −1.85% | MRI cT1 [3, 21]: −4.40 | Alanine Aminotransferase (ALT) s [4, 22]: −3.6 U/L | Alpha-2-Mactoglobulin s [4, 22]: -11.6 mg/mL | Apolipoprotein A1 s [4, 22]: -4.0 mg/dL | Aspartate Aminotransferase (AST) s [4, 22]: −2.8 U/L | CCL2 (Monocyte Chemotactic Protein-1) [4, 22]: -6.00 pg/mL | CCL3 (Macrophage Inflammatory Protein-1 Alpha) [4, 22]: -1.2 pg/mL | CCL5 (RANTES) [4, 22]: 1.2 | CCL11 (Eosinophil Chemotactic Protein) [4, 22]: 0.20 pg/mL | CCL18 (Macrophage Inflammatory Protein-4) [4, 22]: 4.80 ng/mL | High Density Lipoprotein Cholesterol (HDL) [4, 22]: -1.0 mg/dL | IL-6 (Interleukin 6) [4, 22]: 0.34 pg/mL | IR-IRA (Interleukin 1 Receptor Antagonist) [4, 22]: 26.6 pg/mL | TNF Receptor 2 (STNFR-2) [4, 22]: 0.52 ng/mL | VCAM (Vascular Cell Adnhesion Molecule) [4, 22]: -35.6 ng/mL | VEGF (Vascular Endothelian Growth Factor) [4, 22]: -11.2 pg/mL
